Measurements published in patent US20040248821A1, “Composition for the treatment of lupus” (priority 2001, published 2004).
Entries after “also recorded” stand apart in the source; their conditions may differ.

Experiments:
[1] = tested on: patients with Lupus (SLE); assay: Treatment of human Lupus patients with the inventive composition (case reports); format: in vivo; settings: flavonoid replacing Quercetin in the inventive formula; limited tests
[2] = tested on: osteoarthritis or Lupus caused joint inflammation; settings: Bromelain alone; cited from earlier work

Compound | Effectiveness of the flavonoid in the inventive formula (with Bromelain and Vitamin C) [1] | Ameliorating joint pain [2]
O=c1cc(-c2ccc(O)c(O)c2)oc2cc(O)cc(O)c12 [Luteolin] | also effective; also recorded: somewhat more effective than Quercetin | 
Bromelain |  | not effective
O=c1c(O)c(-c2cc(O)c(O)c(O)c2)oc2cc(O)cc(O)c12 [Myricetin] | also effective; also recorded: somewhat effective | 
